# Earlier results as cited in patent EP4684794A1, “TECHNICAL FORMULATION FOR ACTIVE ABSORPTION OF AMINO ACIDS BY HUMAN REPRODUCTIVE SYSTEM” (Xu, Haohan, priority 2023, dated 2024).
# Key:
# [1] = system: MC3T3-E1 osteoblasts; conditions: platelet-derived growth factor-BB, SAPK/JNK pathway
# [2] = system: bone marrow macrophages; conditions: blocking the NF- κ B and MAPK signaling pathways
compound,measurement,setting,value
"O=C(O[C@@H]1Cc2c(O)cc(O)cc2O[C@@H]1c1cc(O)c(O)c(O)c1)c1cc(O)c(O)c(O)c1 [EGCG, epigallocatechin gallate]",teratogenic or developmental toxicity,animal experiments,no teratogenic or developmental toxicity was observed
same,genotoxicity,mouse body fluid analyses,no genotoxic effects
same,expression of IL-6 and IL-6 mRNA,[1],reducing the expression of IL-6 and IL-6 mRNA
same,LPS-mediated pro-inflammatory gene expression,[2],may prevent LPS-mediated pro-inflammatory gene expression
